According to patent publication US8617872B2, “Compositions for culturing spirochetes” (priority 2000, dated 2013):

Assays:
Assay type in all cases: cell-based
Leptospira [1] = assay: Susceptibility testing of Leptospira isolated from a patient with symptoms of multiple sclerosis; conditions: for Antibiotic Susceptibility Results, SERUM: Leptospira culture from serum of multiple sclerosis patient; for Antibiotic Susceptibility Results, URINE: Leptospira culture from urine of multiple sclerosis patient
Protocol: This example describes the preparation of a pellet used for antimicrobial susceptibility testing of a culture sample. […] In order to form pellet, an aliquot of this culture sample is placed in a microcentrifuge tube along with 10% SDS solution, and centrifuged at 14,000 g to disrupt the spirochetes and maximize the number of available eptiopic sites. […] This inoculated alternative growth medium was then allowed to incubate in the closed micro centrifuge tube until a distinctive pellet was observed (typically 7-14 days).
MICROSCAN antibiotic susceptibility microtiter plates were then inoculated with (e.g., 110 μl of) inoculum and allowed to incubate at 35° C. for 16-20 hours. The microtiter plates were then scanned for growth and respective sensitivity reaction (both the control well and the growth well).

Leptospira [2] = assay: Susceptibility testing of Leptospira isolated from a patient with symptoms of rheumatoid arthritis; conditions: for Antibiotic Susceptibility Results, SERUM: Leptospira culture from serum of rheumatoid arthritis patient; for Antibiotic Susceptibility Results, URINE: Leptospira culture from urine of rheumatoid arthritis patient
Description: (§1) This example describes the preparation of a pellet used for antimicrobial susceptibility testing of a culture sample. The procedure begins with a culture (e.g., prepared in the manner described in Example 2), where serum from a patient is inoculated in GSI-1 media and allowed to grow. In order to form pellet, an aliquot of this culture sample is placed in a microcentrifuge tube along with 10% SDS solution, and centrifuged at 14,000 g to disrupt the spirochetes and maximize the number of available eptiopic sites. The disrupted spirochetes were then cultured in an alternative growth medium made up of one part GSI-1 medium, one part 6.5% lactalbumin hydrolysate, one part 2% brain heart infusion, one part 10% pluronic fluid, and one part of the isolated (disrupted) spirochetes. This inoculated alternative growth medium was then allowed to incubate in the closed micro centrifuge tube until a distinctive pellet was observed (typically 7-14 days).
(§2) Following the observation of pellet formation, the tube was vortexed and incubated at 35° C. until a MacFarlane standard of between 8 to 12% turbidity was achieved. MICROSCAN antibiotic susceptibility microtiter plates were then inoculated with (e.g., 110 μl of) inoculum and allowed to incubate at 35° C. for 16-20 hours. The microtiter plates were then scanned for growth and respective sensitivity reaction (both the control well and the growth well).
This Example describes the diagnosis and treatment of a human patient with symptoms of rheumatoid arthritis. In particular, serum and urine samples from this patient were initially cultured on GSI-1 (e.g., as described in Example 2), and screened for the presence of spirochetes (e.g., as described in Example 3). […] These cultures were then used to produce pellets for antimicrobial susceptibility testing (e.g., as described in Example 6). The antimicrobial susceptibility tests were then carried out on each sample (e.g., as described in Example 7) with the antimicrobials listed below in Table 5.

Treponema isolate = assay: Antimicrobial susceptibility test (MICROSCAN plates) of a patient's Treponema isolate; conditions: Treponema infected patient's isolate; MICROSCAN plates, 35° C., 16-20 hours
Protocol: For susceptibility testing, the organisms harvested could be assayed using any suitable susceptibility assay (See, Example 7). In some embodiments of the present invention, MICROSCAN antibiotic susceptibility plates were inoculated and incubated. Following incubations, plates were scanned for growth and respective sensitivity reaction. […] For the results to be considered reliable, the no growth of organisms was accepted in the negative control well, while the positive control well had to have sufficient growth to be read. In some embodiments of the present invention, to confirm the presence or absence of growing spirochetes in the growth well, aliquots from the growth well were reinoculated with fresh growth media and after an incubation time (e.g., 7-10 days) the presence of the organisms was confirmed (e.g., by phase contrast microscopy or direct fluorescent antibody staining).
as §1
This example describes an antimicrobial susceptibility test performed for a human patient. The patient had previously been testing using GSI-1 medium (e.g., as described in Example 2) for the presence of any spirochetes. […] This culture sample was then transferred to a microcentrifuge tube, and a pellet for antimicrobial susceptibility testing was prepared as described in Example 6.
as §2, with “well). Table 2 below lists the various antimicrobials tested with this sample and whether growth of the organism was inhibited (susceptible) or whether the growth of the organism was not inhibited (resistant).” for “well).”

E. coli = assay: Antibiotic susceptibility test (MICROSCAN or disc diffusion), control organism E. coli; conditions: total isolates 1
Borrelia = assay: Antibiotic susceptibility test (MICROSCAN or disc diffusion) of patient samples positive for Borrelia; conditions: total isolates 519
Description: as §1
as §2, with “well). Table 2 below lists the various antimicrobials tested with this sample and whether growth of the organism was inhibited (susceptible) or whether the growth of the organism was not inhibited (resistant).” for “well).”
(§3) This Example describes the results for susceptibility tests that were performed on a large number of patient samples positive for either Borrelia or Leptospira. […] The results presented in Table 3 reveal the varied response of different types of spirochetes to different antibiotics.

Pseudomonas = assay: Antibiotic susceptibility test (MICROSCAN or disc diffusion), control organism Pseudomonas; conditions: total isolates 1
Y. entero gp. = assay: Antibiotic susceptibility test (MICROSCAN or disc diffusion), control organism Y. entero gp.; conditions: total isolates 1
Tatumella = assay: Antibiotic susceptibility test (MICROSCAN or disc diffusion), control organism Tatumella; conditions: total isolates 2
Description: as §1
as §2, with “well). Table 2 below lists the various antimicrobials tested with this sample and whether growth of the organism was inhibited (susceptible) or whether the growth of the organism was not inhibited (resistant).” for “well).”
as §3

Leptospira [3] = assay: Antibiotic susceptibility test (MICROSCAN or disc diffusion) of patient samples positive for Leptospira; conditions: total isolates 276
Description: as §1
as §2, with “well). Table 2 below lists the various antimicrobials tested with this sample and whether growth of the organism was inhibited (susceptible) or whether the growth of the organism was not inhibited (resistant).” for “well).”
as §3

Compound | Antibiotic Susceptibility Results, SERUM (Leptospira [1]) | Antibiotic Susceptibility Results, URINE (Leptospira [1]) | Antibiotic Susceptibility Results, SERUM (Leptospira [2]) | Antibiotic Susceptibility Results, URINE (Leptospira [2]) | RESULT (antibiotic susceptibility) (Treponema isolate) | also measured
CC[C@H]1OC(=O)[C@H](C)[C@@H](O[C@H]2C[C@@](C)(OC)[C@@H](O)[C@H](C)O2)[C@H](C)[C@@H](O[C@@H]2O[C@H](C)C[C@H](N(C)C)[C@H]2O)[C@](C)(O)C[C@@H](C)C(=O)[C@H](C)[C@@H](O)[C@]1(C)O [Erythromycin] | Resistant | Resistant | Resistant | Resistant | – | –
CC1(C)S[C@@H]2[C@H](NC(=O)[C@H](C(=O)O)c3ccsc3)C(=O)N2[C@H]1C(=O)O [Ticarcillin] | – | – | – | – | Susceptible | –
Trimethoprim/Sulfamethoxazole | Susceptible | Susceptible | – | – | Resistant | –
Cc1nnc(SCC2=C(C(=O)O)N3C(=O)[C@@H](NC(=O)Cn4cnnn4)[C@H]3SC2)s1 [Cefazolin] | – | – | – | – | Resistant | –
CCN[C@@H]1C[C@H](N)[C@@H](O[C@H]2OC(CN)=CC[C@H]2N)[C@H](O)[C@H]1O[C@H]1OC[C@](C)(O)[C@H](NC)[C@H]1O [Netilmicin] | – | – | – | – | Resistant | –
CN(C)[C@@H]1C(O)=C(C(N)=O)C(=O)[C@@]2(O)C(O)=C3C(=O)c4c(O)cccc4[C@@](C)(O)[C@H]3C[C@@H]12 [Tetracycline] | Resistant | Resistant | Resistant | Resistant | Resistant | –
Piperacillin/Tazobactam | Intermediate | Intermediate | Intermediate | Intermediate | – | Antibiotic Susceptibility Test Results, E. coli (E. coli): 100%; Antibiotic Susceptibility Test Results, Borrelia (Borrelia): 88%; Antibiotic Susceptibility Test Results, Pseudomonas (Pseudomonas): 100%; Antibiotic Susceptibility Test Results, Y. entero gp. (Y. entero gp.): 100%; Antibiotic Susceptibility Test Results, Tatumella (Tatumella): 100%; Antibiotic Susceptibility Test Results, Leptospira (Leptospira [3]): 86%
CC1(C)S[C@@H]2[C@H](NC(=O)[C@H](NC(=O)N3CCN(S(C)(=O)=O)C3=O)c3ccccc3)C(=O)N2[C@H]1C(=O)O [Mezlocillin] | – | – | – | – | Susceptible | –
CCC[C@@H]1C[C@@H](C(=O)N[C@@H]([C@H]2O[C@H](SC)[C@H](O)[C@@H](O)[C@H]2O)[C@H](C)Cl)N(C)C1 [Clindamycin] | Resistant | Resistant | Resistant | Resistant | – | –
CC(=O)OCC1=C(C(=O)O)N2C(=O)[C@@H](NC(=O)Cc3cccs3)[C@H]2SC1 [Cephalothin] | – | – | – | – | Susceptible | –
CC[C@H]1OC(=O)[C@H](C)[C@@H](O[C@H]2C[C@@](C)(OC)[C@@H](O)[C@H](C)O2)[C@H](C)[C@@H](O[C@@H]2O[C@H](C)C[C@H](N(C)C)[C@H]2O)[C@](C)(O)C[C@@H](C)CN(C)[C@H](C)[C@@H](O)[C@]1(C)O [Azithromycin] | Resistant | Resistant | Resistant | Resistant | – | –
CCn1cc(C(=O)O)c(=O)c2cc(F)c(N3CCNCC3)cc21 [Norfloxacin] | – | Susceptible | – | Susceptible | – | –
CC[C@H]1OC(=O)[C@H](C)[C@@H](O[C@H]2C[C@@](C)(OC)[C@@H](O)[C@H](C)O2)[C@H](C)[C@@H](O[C@@H]2O[C@H](C)C[C@H](N(C)C)[C@H]2O)[C@](C)(OC)C[C@@H](C)C(=O)[C@H](C)[C@@H](O)[C@]1(C)O [Clarithromycin] | Resistant | Resistant | Resistant | Resistant | – | –
Trimethoprim Sulfate | – | – | Susceptible | Susceptible | – | –
Penicillin | – | – | Resistant | Resistant | – | –
CO[C@H]1/C=C/O[C@@]2(C)Oc3c(C)c(O)c4c(O)c(c(/C=N/N5CCN(C)CC5)c(O)c4c3C2=O)NC(=O)/C(C)=C\C=C\[C@H](C)[C@H](O)[C@@H](C)[C@@H](O)[C@@H](C)[C@H](OC(C)=O)[C@@H]1C [Rifampin] | Resistant | Resistant | Resistant | Resistant | – | –
CC1(C)S[C@@H]2[C@H](NC(=O)[C@H](N)c3ccccc3)C(=O)N2[C@H]1C(=O)O [Ampicillin] | Resistant | Resistant | Resistant | Resistant | Susceptible | Antibiotic Susceptibility Test Results, E. coli (E. coli): 100%; Antibiotic Susceptibility Test Results, Borrelia (Borrelia): 61%; Antibiotic Susceptibility Test Results, Y. entero gp. (Y. entero gp.): 100%; Antibiotic Susceptibility Test Results, Tatumella (Tatumella): 100%; Antibiotic Susceptibility Test Results, Leptospira (Leptospira [3]): 54%
Ampicillin/Sulbactam | – | – | – | – | Susceptible | –
CO/N=C(\C(=O)N[C@@H]1C(=O)N2C(C(=O)O)=C(COC(N)=O)CS[C@H]12)c1ccco1 [Cefuroxime] | Resistant | Resistant | Resistant | Resistant | – | Antibiotic Susceptibility Test Results, E. coli (E. coli): 100%; Antibiotic Susceptibility Test Results, Borrelia (Borrelia): 59%; Antibiotic Susceptibility Test Results, Y. entero gp. (Y. entero gp.): 100%; Antibiotic Susceptibility Test Results, Tatumella (Tatumella): 0%; Antibiotic Susceptibility Test Results, Leptospira (Leptospira [3]): 59%
